# According to ChEMBL document CHEMBL1201862, “PubChem BioAssay data set” (2004):
# The source made the active and inactive calls.
# Assays:
# [1] = intracellular Trypanosoma cruzi inhibitors in host cells – cell-based, plate reader, cherry-pick samples, set 3, dose response (AID 651818); assay type: functional;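 further: compounds incubated with infected cells for about four days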
# Fatty acid synthase [2] = biological target: T1, Fatty acid synthase (Homo sapiens, UniProt P49327); assay: FAS thioesterase domain inhibitors, dose response, biochemical, endpoint fluorescence intensity, uHTS hits (AID 624327); assay type: functional;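 further: fluorescence from hydrolysis of an O-methyl fluorescein acyl ester substrate by the enzyme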
# Fatty acid synthase [3] = biological target: T1, Fatty acid synthase; assay: FAS thioesterase domain inhibitors, dose response, biochemical, kinetic fluorescence intensity (AID 624326); assay type: functional;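 further: rate of fluorescence rise from hydrolysis of a fluorogenic O-methyl fluorescein ester substrate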
# [4] = P. falciparum Dd2 growth inhibitors, dose response, SYBR Green, cherry-picked samples (AID 1159567); assay type: functional, cell-based
# Protein skinhead-1 = biological target: T2, Protein skinhead-1 (Caenorhabditis elegans, UniProt P34707); assay type: functional
# T2 sequence (P34707 whole entry): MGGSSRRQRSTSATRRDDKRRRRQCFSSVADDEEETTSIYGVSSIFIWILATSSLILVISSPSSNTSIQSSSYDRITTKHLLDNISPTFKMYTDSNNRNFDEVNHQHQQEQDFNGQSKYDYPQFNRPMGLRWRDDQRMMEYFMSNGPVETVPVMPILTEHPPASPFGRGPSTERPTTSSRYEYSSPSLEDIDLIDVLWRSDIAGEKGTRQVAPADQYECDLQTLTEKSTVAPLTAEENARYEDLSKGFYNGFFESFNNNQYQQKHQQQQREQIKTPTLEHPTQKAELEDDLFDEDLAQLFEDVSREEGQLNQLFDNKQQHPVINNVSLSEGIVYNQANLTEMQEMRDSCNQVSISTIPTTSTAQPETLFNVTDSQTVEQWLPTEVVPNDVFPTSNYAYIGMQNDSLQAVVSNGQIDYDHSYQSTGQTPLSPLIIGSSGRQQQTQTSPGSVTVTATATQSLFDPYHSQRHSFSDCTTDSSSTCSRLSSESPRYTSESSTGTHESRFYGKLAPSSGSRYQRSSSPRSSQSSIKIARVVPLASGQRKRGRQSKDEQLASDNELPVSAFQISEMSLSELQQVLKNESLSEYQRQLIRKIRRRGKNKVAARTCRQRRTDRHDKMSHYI
# cells = assay type: functional
# Large T antigen = Large T antigen (Simian virus 40, UniProt P03070); assay type: functional, Betapolyomavirus macacae;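 further: Confirmatory-stage PubChem screen for compounds that inhibit SV40 T antigen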
# [5] = inhibitors of intracellular T. cruzi replication, confirmation, NIH3T3 host cells, beta-gal luminescence (AID 2044); assay type: functional, cell-based;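 further: intracellular parasites grown in NIH/3T3 mouse fibroblasts as host cells; luminescent beta-galactosidase reporter signal from transgenic T. cruzi replicating inside host cells; inhibitors lower the luminescence signal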
# [6] = cytotoxicity toward NIH3T3 fibroblasts, dose response, counter-screen, cell-based, ATP luminescence, mouse fibroblasts (AID 2010); assay type: functional;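 further: cells exposed to compound for about 90 hours before reading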
# [7] = biological target: T3, Ubiquitin-conjugating enzyme E2 N (Homo sapiens, UniProt P61088); assay type: functional;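 further: Dose-response confirmation in a TR-FRET assay detecting UBC13-driven polyubiquitin chain formation, inhibition measured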
# T3 sequence (P61088 whole entry): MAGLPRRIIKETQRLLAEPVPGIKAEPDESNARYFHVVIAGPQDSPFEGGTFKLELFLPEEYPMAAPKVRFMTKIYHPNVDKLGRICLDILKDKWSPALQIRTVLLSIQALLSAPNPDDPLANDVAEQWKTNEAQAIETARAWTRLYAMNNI
# [8] = biological target: T4, Zinc finger protein mex-5 (Caenorhabditis elegans, UniProt Q9XUB2); assay: MEX-5/TCR-2 RNA interaction inhibitors, dose response, biochemical, C. elegans, fluorescence polarization (AID 1960)
# T4 sequence (Q9XUB2 whole entry): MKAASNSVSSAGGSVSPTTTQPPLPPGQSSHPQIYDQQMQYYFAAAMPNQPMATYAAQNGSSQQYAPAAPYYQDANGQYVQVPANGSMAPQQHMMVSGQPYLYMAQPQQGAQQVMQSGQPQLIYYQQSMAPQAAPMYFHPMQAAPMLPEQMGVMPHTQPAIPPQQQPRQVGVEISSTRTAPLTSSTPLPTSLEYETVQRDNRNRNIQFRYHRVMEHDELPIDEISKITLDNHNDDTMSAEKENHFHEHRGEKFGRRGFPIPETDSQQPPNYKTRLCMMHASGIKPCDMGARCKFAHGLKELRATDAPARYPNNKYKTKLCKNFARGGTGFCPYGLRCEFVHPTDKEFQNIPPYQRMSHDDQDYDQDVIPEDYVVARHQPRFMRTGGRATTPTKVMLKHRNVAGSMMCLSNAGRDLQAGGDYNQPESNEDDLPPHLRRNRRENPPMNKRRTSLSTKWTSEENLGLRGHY
# [9] = biological target: T5, Corticotropin-releasing factor receptor 2/Corticotropin-releasing factor-binding protein (Homo sapiens, UniProt P24387+Q13324); assay: activators of CRF receptor 2 with binding protein – uHTS hits, confirmation (AID 602473); assay type: functional; conditions: read-out: EC50_Mean
# T5 sequence (Q13324 whole entry): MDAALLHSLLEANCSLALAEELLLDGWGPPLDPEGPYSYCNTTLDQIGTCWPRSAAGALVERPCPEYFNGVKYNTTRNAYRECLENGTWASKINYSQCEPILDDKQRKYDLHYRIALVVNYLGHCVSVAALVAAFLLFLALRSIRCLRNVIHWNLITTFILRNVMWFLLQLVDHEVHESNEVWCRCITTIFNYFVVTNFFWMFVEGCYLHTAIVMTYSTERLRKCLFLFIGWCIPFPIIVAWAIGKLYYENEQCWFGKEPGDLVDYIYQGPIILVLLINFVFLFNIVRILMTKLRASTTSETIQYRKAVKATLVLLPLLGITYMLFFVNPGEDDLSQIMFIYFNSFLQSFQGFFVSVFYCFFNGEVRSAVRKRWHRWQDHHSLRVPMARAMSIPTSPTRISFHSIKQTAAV
# T5 sequence (P24387 whole entry): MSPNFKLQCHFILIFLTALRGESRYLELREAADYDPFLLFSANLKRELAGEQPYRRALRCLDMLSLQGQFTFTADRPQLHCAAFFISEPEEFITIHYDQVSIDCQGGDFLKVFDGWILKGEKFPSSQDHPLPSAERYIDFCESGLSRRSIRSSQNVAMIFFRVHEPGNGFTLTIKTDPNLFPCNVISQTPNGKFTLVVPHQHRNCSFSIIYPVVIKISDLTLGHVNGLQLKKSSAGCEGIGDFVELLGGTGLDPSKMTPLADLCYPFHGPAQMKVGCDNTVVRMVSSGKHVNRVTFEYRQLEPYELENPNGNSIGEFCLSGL
# [10] = biological target: T6, Rac GTPase-activating protein 1 (Homo sapiens, UniProt Q9H0H5); assay: MgcRacGAP GTPase-activating activity inhibitors, confirmation, biochemical, ADP Hunter fluorescence, primary and confirmatory (AID 624330); assay type: functional
# T6 sequence (Q9H0H5 whole entry): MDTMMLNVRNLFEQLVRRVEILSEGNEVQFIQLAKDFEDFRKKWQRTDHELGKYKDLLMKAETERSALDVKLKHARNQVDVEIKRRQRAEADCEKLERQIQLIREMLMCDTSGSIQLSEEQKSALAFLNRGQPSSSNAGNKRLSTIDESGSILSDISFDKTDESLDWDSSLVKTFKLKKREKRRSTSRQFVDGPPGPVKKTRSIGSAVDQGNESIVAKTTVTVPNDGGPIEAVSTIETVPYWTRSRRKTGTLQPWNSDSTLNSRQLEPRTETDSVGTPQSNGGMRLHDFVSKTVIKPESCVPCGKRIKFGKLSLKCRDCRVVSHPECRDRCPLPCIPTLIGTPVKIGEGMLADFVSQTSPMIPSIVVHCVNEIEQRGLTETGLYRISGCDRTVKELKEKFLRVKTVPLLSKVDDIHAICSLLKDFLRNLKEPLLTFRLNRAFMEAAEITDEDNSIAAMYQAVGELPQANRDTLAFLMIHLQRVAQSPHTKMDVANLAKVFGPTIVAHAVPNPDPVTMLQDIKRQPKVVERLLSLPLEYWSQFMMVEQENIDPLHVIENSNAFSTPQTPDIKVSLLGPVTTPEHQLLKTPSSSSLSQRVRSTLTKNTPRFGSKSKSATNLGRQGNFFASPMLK
# [11] = biological target: T7, Carboxy-terminal domain RNA polymerase II polypeptide A small phosphatase 1 (Homo sapiens, UniProt Q9GZU7); assay: inhibitors of CTDSP1, concentration-response testing, biochemical assay, absorbance-based, actives from ultra-high-throughput screening (AID 540297); assay type: functional
# T7 sequence (Q9GZU7 whole entry): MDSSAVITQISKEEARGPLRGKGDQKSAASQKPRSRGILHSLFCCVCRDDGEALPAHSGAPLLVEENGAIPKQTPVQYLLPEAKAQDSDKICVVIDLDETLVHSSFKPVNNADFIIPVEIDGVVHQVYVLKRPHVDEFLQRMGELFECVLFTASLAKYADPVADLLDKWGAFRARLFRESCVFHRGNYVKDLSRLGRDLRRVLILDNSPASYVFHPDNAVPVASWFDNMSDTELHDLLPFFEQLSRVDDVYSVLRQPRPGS
# [12] = Shn3 3'UTR reporter inhibitors, dose response, cell-based, Clone20 osteoblasts, firefly luciferase, cherry-picked (AID 624132); assay type: functional;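 further: firefly luciferase luminescence from reporter carrying the Shn3 3'UTR in osteoblasts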
# [13] = control 3'UTR Renilla luciferase suppression, dose response, counter-screen for Shn3 inhibitor project, cell-based, Clone20-Shn3RL, cherry-picked (AID 624133); assay type: functional
# T1 sequence (P49327 whole entry, the tested form may be a part): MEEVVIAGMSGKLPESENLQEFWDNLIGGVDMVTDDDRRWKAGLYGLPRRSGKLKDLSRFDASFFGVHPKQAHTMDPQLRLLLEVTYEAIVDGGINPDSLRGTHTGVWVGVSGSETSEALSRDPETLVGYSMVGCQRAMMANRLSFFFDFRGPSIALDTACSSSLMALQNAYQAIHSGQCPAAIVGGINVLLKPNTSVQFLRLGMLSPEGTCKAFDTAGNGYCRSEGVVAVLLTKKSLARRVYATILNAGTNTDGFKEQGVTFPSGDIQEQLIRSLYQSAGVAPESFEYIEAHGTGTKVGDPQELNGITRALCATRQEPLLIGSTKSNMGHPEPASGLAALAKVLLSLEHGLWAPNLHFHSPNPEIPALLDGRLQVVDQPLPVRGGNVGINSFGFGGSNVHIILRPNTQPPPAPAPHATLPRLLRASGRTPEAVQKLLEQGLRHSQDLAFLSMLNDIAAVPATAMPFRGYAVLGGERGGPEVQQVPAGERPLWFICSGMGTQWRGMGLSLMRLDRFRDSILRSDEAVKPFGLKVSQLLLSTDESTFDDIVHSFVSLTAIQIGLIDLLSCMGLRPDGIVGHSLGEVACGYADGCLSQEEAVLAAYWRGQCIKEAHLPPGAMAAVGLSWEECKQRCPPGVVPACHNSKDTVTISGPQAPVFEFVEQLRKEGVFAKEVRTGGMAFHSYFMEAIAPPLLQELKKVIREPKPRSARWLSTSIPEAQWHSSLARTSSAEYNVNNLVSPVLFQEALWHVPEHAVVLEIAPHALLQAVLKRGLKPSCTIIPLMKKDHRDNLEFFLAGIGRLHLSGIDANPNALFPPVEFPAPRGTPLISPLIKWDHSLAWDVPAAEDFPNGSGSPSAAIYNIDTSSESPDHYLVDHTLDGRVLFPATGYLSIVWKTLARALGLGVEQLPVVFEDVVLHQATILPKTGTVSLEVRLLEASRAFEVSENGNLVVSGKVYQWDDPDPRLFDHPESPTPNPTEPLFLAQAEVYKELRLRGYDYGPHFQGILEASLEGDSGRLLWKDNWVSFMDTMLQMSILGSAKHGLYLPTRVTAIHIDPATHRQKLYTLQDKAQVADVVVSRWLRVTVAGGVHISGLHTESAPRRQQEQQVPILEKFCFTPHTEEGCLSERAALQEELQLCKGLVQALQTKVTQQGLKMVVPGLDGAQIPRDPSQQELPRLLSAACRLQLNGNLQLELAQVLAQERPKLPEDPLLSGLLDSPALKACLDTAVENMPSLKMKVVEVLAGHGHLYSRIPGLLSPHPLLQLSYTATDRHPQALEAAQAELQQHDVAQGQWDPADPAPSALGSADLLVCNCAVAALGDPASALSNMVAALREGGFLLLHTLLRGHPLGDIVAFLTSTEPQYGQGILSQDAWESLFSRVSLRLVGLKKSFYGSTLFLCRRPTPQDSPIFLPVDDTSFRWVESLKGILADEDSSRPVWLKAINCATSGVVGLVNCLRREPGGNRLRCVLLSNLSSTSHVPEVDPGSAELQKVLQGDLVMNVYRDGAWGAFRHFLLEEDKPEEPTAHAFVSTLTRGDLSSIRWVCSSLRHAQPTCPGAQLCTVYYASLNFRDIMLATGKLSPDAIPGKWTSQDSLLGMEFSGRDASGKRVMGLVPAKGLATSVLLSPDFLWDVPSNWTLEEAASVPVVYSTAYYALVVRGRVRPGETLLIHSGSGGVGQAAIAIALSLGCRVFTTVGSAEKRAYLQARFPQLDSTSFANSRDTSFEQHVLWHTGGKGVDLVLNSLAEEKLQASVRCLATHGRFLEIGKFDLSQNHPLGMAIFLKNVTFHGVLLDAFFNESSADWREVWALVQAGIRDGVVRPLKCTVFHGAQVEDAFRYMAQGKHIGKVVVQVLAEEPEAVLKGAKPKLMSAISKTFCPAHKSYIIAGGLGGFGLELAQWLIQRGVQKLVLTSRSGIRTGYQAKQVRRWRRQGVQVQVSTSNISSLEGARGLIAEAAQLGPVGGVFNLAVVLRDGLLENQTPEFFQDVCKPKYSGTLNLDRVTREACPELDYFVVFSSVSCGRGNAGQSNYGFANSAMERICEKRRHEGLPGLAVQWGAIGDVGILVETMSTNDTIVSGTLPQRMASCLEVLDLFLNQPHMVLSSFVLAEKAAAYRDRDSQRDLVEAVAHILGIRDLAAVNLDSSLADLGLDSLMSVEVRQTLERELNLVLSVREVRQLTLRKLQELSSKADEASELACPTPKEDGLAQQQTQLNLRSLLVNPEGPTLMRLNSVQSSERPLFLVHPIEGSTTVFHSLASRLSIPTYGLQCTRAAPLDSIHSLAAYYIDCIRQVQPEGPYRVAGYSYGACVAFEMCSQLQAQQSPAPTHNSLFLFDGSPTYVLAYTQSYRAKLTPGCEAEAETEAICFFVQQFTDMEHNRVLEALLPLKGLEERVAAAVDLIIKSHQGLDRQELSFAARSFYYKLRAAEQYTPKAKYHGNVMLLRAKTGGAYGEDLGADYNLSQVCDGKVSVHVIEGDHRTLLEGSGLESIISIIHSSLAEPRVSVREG
# Large T antigen, sequence (P03070 whole entry): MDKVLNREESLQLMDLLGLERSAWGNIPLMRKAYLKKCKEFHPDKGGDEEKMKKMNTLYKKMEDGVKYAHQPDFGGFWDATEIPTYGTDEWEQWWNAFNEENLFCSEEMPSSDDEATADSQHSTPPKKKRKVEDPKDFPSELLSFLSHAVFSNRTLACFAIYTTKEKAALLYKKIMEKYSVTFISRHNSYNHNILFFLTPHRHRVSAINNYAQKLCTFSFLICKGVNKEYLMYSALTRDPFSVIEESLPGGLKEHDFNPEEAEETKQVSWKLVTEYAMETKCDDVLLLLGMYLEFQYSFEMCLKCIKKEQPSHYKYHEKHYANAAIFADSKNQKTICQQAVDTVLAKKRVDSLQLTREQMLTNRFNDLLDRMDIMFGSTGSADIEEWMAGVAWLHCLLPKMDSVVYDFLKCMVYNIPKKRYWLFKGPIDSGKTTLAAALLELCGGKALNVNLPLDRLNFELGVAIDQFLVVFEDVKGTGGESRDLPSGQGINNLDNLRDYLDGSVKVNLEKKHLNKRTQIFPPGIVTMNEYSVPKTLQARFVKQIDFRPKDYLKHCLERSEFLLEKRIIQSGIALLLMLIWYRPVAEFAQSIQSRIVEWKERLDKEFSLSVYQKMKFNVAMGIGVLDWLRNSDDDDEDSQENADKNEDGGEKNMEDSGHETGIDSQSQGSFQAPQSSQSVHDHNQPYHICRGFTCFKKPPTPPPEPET
smiles,measurement,setting,value
COc1ccc(CN(C)C[C@@H]2Oc3c(NC(=O)Nc4ccc(C(F)(F)F)cc4)cccc3C(=O)N([C@H](C)CO)C[C@@H]2C)cc1,AC50,[1],1.42 µM (active)
CCN(C(=O)COC(=O)c1cc([N+](=O)[O-])ccc1N1CCOCC1)C1CCCCC1,IC50,Fatty acid synthase [2],1.13 µM (active)
same,IC50,Fatty acid synthase [3],4.08 µM (active)
C[C@H]1CN([C@@H](C)CO)C(=O)c2cc(NC(=O)Nc3cccc4ccccc34)ccc2O[C@@H]1CN(C)Cc1ccc(Oc2ccccc2)cc1,AC50,[1],4.66 µM (active)
same,AC50,[4],7.39 µM (active)
Fc1ccc(-c2nc3ccc(Br)cn3c2Cc2ccccc2C(F)(F)F)cc1,IC50,Protein skinhead-1,> 100 µM (inactive)
CCNC(=O)C1(C)CCCN1C(=O)c1ccc(C#N)cc1 (stereo unspecified),IC50,Protein skinhead-1,> 100 µM (inactive)
CCCNC(=O)c1ccc2snnc2c1,IC50,Protein skinhead-1,> 100 µM (inactive)
CCOCC(=O)Nc1ccc(C)c(Cl)c1,IC50,cells,37.1 µM (active)
same,IC50,Protein skinhead-1,> 100 µM (inactive)
O=c1nc2n(c(O)c1C(c1c(O)nc3n(c1=O)CCS3)c1cccc3ccccc13)CCS2 (stereo unspecified),IC50,Large T antigen,> 100 µM (active)
CN1CCc2nc(SCc3ccccc3Br)c(C#N)cc2C1,IC50,Fatty acid synthase [2],7.9 µM (active)
same,IC50,Fatty acid synthase [3],6.01 µM (active)
Cc1ccccc1NC(=O)c1cc(N)ccc1N1CCCCC1,IC50,Large T antigen,18.9 µM (active)
c1ccc(-c2ccc(OCCCNC3CCCC3)cc2)cc1,EC50,[5],1.03 µM (active)
same,EC50,[6],> 60 µM (not active)
same,IC50,Protein skinhead-1,20.8 µM (active)
COc1ccc(/C=C(\NC(=O)c2ccc([N+](=O)[O-])cc2)C(=O)N2CCOCC2)cc1,IC50,Fatty acid synthase [2],1.34 µM (active)
same,IC50,Fatty acid synthase [3],0.848 µM (active)
O=C(CCCCCN1C(=O)c2cccc3cccc(c23)C1=O)NCc1ccco1,IC50,[7],> 20 µM (inactive)
O=C1NC(=O)N(c2ccc(F)cc2)C(=O)/C1=C/c1c[nH]c2ccccc12,EC50,[8],> 300 µM (inconclusive)
same,EC50,[9],10.3 µM (active)
N#CC1=C2SCN(c3ccccc3)CN2C(=O)CC1c1ccccc1Cl (stereo unspecified),IC50,Large T antigen,36.3 µM (active)
C[C@H](CO)N1C[C@H](C)[C@@H](CN(C)Cc2ccc(C(=O)Nc3ccccc3N)cc2)Oc2c(NS(=O)(=O)c3ccc(Cl)cc3)cccc2C1=O,AC50,[1],1.41 µM (active)
O=C(CCn1c(=S)[nH]c2ccccc2c1=O)NCCCN1CCCC1=O,IC50,Protein skinhead-1,> 100 µM (inactive)
Cc1ccc(C(=O)Nc2nc(-c3ccc(F)cc3)cs2)o1,IC50,Protein skinhead-1,> 100 µM (inactive)
COc1cc(/C=N\NC(=O)C2CC3C=CC2C3)ccc1O (stereo unspecified),IC50,Large T antigen,13.3 µM (active)
same,IC50,[10],23.4 µM (active)
COc1ccccc1NC(=O)Oc1ccc(NC(=O)c2ccco2)cc1,IC50,Large T antigen,22.9 µM (active)
COc1ccccc1C(=O)Nc1c2c(nn1-c1cccc(C)c1C)CS(=O)(=O)C2,IC50,[7],> 20 µM (inactive)
same,IC50,[11],10.1 µM (active)
C=CCn1c(SCC(=O)N(CC)C2CCS(=O)(=O)C2)nnc1-c1ccccc1 (stereo unspecified),IC50,[7],> 20 µM (inactive)
C[C@H]1CN([C@@H](C)CO)C(=O)c2cc(NS(=O)(=O)c3ccc(Cl)cc3)ccc2O[C@H]1CN(C)Cc1ccc(C(=O)Nc2ccccc2N)cc1,AC50,[1],1.96 µM (active)
Cc1cc(OCc2cccc(Cl)c2)c(C)cc1CN1CCOCC1,IC50,Protein skinhead-1,6.33 µM (active)
Cc1cc(C(=O)Nc2cccc3c2O[C@@H](CN(C)Cc2ccc(-c4ccccc4)cc2)[C@@H](C)CN([C@H](C)CO)C3=O)n(C)n1,AC50,[1],5.16 µM (active)
C[C@H]1CN([C@@H](C)CO)C(=O)c2cccc(NC(=O)CCCCCC(=O)Nc3ccccc3N)c2O[C@@H]1CN(C)Cc1ccc(-c2ccccc2)cc1,AC50,[1],1.71 µM (active)
Cc1ccc(N2C(=O)NC(=O)/C(=C/Nc3ccc(S(=O)(=O)N(C)C)cc3)C2=O)cc1,IC50,Protein skinhead-1,> 100 µM (inactive)
C[C@H]1CN([C@@H](C)CO)C(=O)Cc2cc(NC(=O)Nc3ccc(C(F)(F)F)cc3)ccc2O[C@H]1CN(C)Cc1ccc(C(=O)Nc2ccccc2N)cc1,AC50,[1],2.13 µM (active)
COc1ccc(OC)c(C(c2nnnn2Cc2ccccc2)N2CCN(C3CCCCC3)CC2)c1 (stereo unspecified),AC50,[12],> 70 µM (inactive)
same,AC50,[13],30.4 µM (active)
NC1=NC[C@H](c2ccccc2)N1CCc1cc(C(F)(F)F)cc(C(F)(F)F)c1,IC50,[7],> 20 µM (inactive)
